{"source": "PubChem BioAssay AID1963836", "about": "(Molecular Pharmacology Branch, DTP, NCI, 2024);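 also: spheroids exposed to compounds for seven days before readout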", "tested_on": "857933-349-R-J2-PDC complex spheroid viability", "assay": "Anticancer human tumor 857933-349-R-J2-PDC patient-derived colon adenocarcinoma cell line growth inhibition [POLQ]", "settings": "for IC50: curve of first compound; for viability, T/C: stronger effect = lower value", "procedure,_shortened": "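Growth inhibition in 3D: complex spheroids (tumor PDC, HUVEC, MSC) treated with POLQ inhibitor combinations; where Cmax unknown, highest tested concentration 10 microM, except SN-38 at 1 microM.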", "key": {"[1]": {"settings": "second compound 0.0316 µM, first compound 0.0316 µM"}, "[2]": {"settings": "second compound 0.0316 µM, first compound 0.1 µM"}, "[3]": {"settings": "second compound 0.0316 µM, first compound 0.316 µM"}, "[4]": {"settings": "second compound 0.0316 µM, first compound 1 µM"}, "[5]": {"settings": "second compound 0.0316 µM, first compound 3.16 µM"}, "[6]": {"settings": "second compound 0.0316 µM, first compound 10 µM"}, "[7]": {"settings": "second compound 0.1 µM, first compound 0.0316 µM"}, "[8]": {"settings": "second compound 0.1 µM, first compound 0.1 µM"}, "[9]": {"settings": "second compound 0.1 µM, first compound 0.316 µM"}, "[10]": {"settings": "second compound 0.1 µM, first compound 1 µM"}, "[11]": {"settings": "second compound 0.1 µM, first compound 3.16 µM"}, "[12]": {"settings": "second compound 0.1 µM, first compound 10 µM"}, "[13]": {"settings": "second compound 0.316 µM, first compound 0.0316 µM"}, "[14]": {"settings": "second compound 0.316 µM, first compound 0.1 µM"}, "[15]": {"settings": "second compound 0.316 µM, first compound 0.316 µM"}, "[16]": {"settings": "second compound 0.316 µM, first compound 1 µM"}, "[17]": {"settings": "second compound 0.316 µM, first compound 3.16 µM"}, "[18]": {"settings": "second compound 0.316 µM, first compound 10 µM"}, "[19]": {"settings": "second compound 1 µM, first compound 0.0316 µM"}, "[20]": {"settings": "second compound 1 µM, first compound 0.1 µM"}, "[21]": {"settings": "second compound 1 µM, first compound 0.316 µM"}, "[22]": {"settings": "second compound 1 µM, first compound 1 µM"}, "[23]": {"settings": "second compound 1 µM, first compound 3.16 µM"}, "[24]": {"settings": "second compound 1 µM, first compound 10 µM"}, "[25]": {"settings": "second compound 3.16 µM, first compound 0.0316 µM"}, "[26]": {"settings": "second compound 3.16 µM, first compound 0.1 µM"}, "[27]": {"settings": "second compound 3.16 µM, first compound 0.316 µM"}, "[28]": {"settings": "second compound 3.16 µM, first compound 1 µM"}, "[29]": {"settings": "second compound 3.16 µM, first compound 3.16 µM"}, "[30]": {"settings": "second compound 3.16 µM, first compound 10 µM"}, "[31]": {"settings": "second compound 10 µM, first compound 0.0316 µM"}, "[32]": {"settings": "second compound 10 µM, first compound 0.1 µM"}, "[33]": {"settings": "second compound 10 µM, first compound 0.316 µM"}, "[34]": {"settings": "second compound 10 µM, first compound 1 µM"}, "[35]": {"settings": "second compound 10 µM, first compound 3.16 µM"}, "[36]": {"settings": "second compound 10 µM, first compound 10 µM"}}}
{"smiles": "C#Cc1c(F)ccc2cc(O)cc(-c3ncc4c(N5CC6CCC(C5)N6)nc(OCC56CCCN5CC(F)C6)nc4c3F)c12", "note": "(centres undefined) + COC1C(OC(N)=O)C(O)C(Oc2ccc3c(O)c(NC(=O)c4ccc(O)c(CC=C(C)C)c4)c(=O)oc3c2C)OC1(C)C", "values": [{"measurement": "IC50", "setting": "second compound 0.0316 µM", "result": "> 10", "unit": "µM"}, {"measurement": "IC50", "setting": "second compound 0.1 µM", "result": "> 10", "unit": "µM"}, {"measurement": "IC50", "setting": "second compound 0.316 µM", "result": "> 10", "unit": "µM"}, {"measurement": "IC50", "setting": "second compound 1 µM", "result": "> 10", "unit": "µM"}, {"measurement": "IC50", "setting": "second compound 3.16 µM", "result": "> 10", "unit": "µM"}, {"measurement": "IC50", "setting": "second compound 10 µM", "result": "> 10", "unit": "µM"}, {"measurement": "viability, T/C", "setting": "[1]", "result": 106, "unit": "%"}, {"measurement": "viability, T/C", "setting": "[2]", "result": 94.9, "unit": "%"}, {"measurement": "viability, T/C", "setting": "[3]", "result": 92.3, "unit": "%"}, {"measurement": "viability, T/C", "setting": "[4]", "result": 79.2, "unit": "%"}, {"measurement": "viability, T/C", "setting": "[5]", "result": 70.8, "unit": "%"}, {"measurement": "viability, T/C", "setting": "[6]", "result": 99.2, "unit": "%"}, {"measurement": "viability, T/C", "setting": "[7]", "result": 102, "unit": "%"}, {"measurement": "viability, T/C", "setting": "[8]", "result": 102, "unit": "%"}, {"measurement": "viability, T/C", "setting": "[9]", "result": 94, "unit": "%"}, {"measurement": "viability, T/C", "setting": "[10]", "result": 80.7, "unit": "%"}, {"measurement": "viability, T/C", "setting": "[11]", "result": 86.6, "unit": "%"}, {"measurement": "viability, T/C", "setting": "[12]", "result": 92.2, "unit": "%"}, {"measurement": "viability, T/C", "setting": "[13]", "result": 98, "unit": "%"}, {"measurement": "viability, T/C", "setting": "[14]", "result": 96.7, "unit": "%"}, {"measurement": "viability, T/C", "setting": "[15]", "result": 81.2, "unit": "%"}, {"measurement": "viability, T/C", "setting": "[16]", "result": 88.6, "unit": "%"}, {"measurement": "viability, T/C", "setting": "[17]", "result": 84.9, "unit": "%"}, {"measurement": "viability, T/C", "setting": "[18]", "result": 78.1, "unit": "%"}, {"measurement": "viability, T/C", "setting": "[19]", "result": 114, "unit": "%"}, {"measurement": "viability, T/C", "setting": "[20]", "result": 95.1, "unit": "%"}, {"measurement": "viability, T/C", "setting": "[21]", "result": 79.3, "unit": "%"}, {"measurement": "viability, T/C", "setting": "[22]", "result": 82.3, "unit": "%"}, {"measurement": "viability, T/C", "setting": "[23]", "result": 95.5, "unit": "%"}, {"measurement": "viability, T/C", "setting": "[24]", "result": 90.8, "unit": "%"}, {"measurement": "viability, T/C", "setting": "[25]", "result": 96.4, "unit": "%"}, {"measurement": "viability, T/C", "setting": "[26]", "result": 98.6, "unit": "%"}, {"measurement": "viability, T/C", "setting": "[27]", "result": 96, "unit": "%"}, {"measurement": "viability, T/C", "setting": "[28]", "result": 119, "unit": "%"}, {"measurement": "viability, T/C", "setting": "[29]", "result": 88.1, "unit": "%"}, {"measurement": "viability, T/C", "setting": "[30]", "result": 94.5, "unit": "%"}, {"measurement": "viability, T/C", "setting": "[31]", "result": 98.3, "unit": "%"}, {"measurement": "viability, T/C", "setting": "[32]", "result": 89.8, "unit": "%"}, {"measurement": "viability, T/C", "setting": "[33]", "result": 93, "unit": "%"}, {"measurement": "viability, T/C", "setting": "[34]", "result": 77.6, "unit": "%"}, {"measurement": "viability, T/C", "setting": "[35]", "result": 85.4, "unit": "%"}, {"measurement": "viability, T/C", "setting": "[36]", "result": 104, "unit": "%"}]}
{"smiles": "CNCc1ccc(-c2[nH]c3cc(F)cc4c3c2CCNC4=O)cc1", "note": "+ COC1C(OC(N)=O)C(O)C(Oc2ccc3c(O)c(NC(=O)c4ccc(O)c(CC=C(C)C)c4)c(=O)oc3c2C)OC1(C)C", "values": [{"measurement": "IC50", "setting": "second compound 0.0316 µM", "result": "> 10", "unit": "µM"}, {"measurement": "IC50", "setting": "second compound 0.1 µM", "result": "> 10", "unit": "µM"}, {"measurement": "IC50", "setting": "second compound 0.316 µM", "result": "> 10", "unit": "µM"}, {"measurement": "IC50", "setting": "second compound 1 µM", "result": "> 10", "unit": "µM"}, {"measurement": "IC50", "setting": "second compound 3.16 µM", "result": "> 10", "unit": "µM"}, {"measurement": "IC50", "setting": "second compound 10 µM", "result": "> 10", "unit": "µM"}, {"measurement": "viability, T/C", "setting": "[1]", "result": 85.1, "unit": "%"}, {"measurement": "viability, T/C", "setting": "[2]", "result": 90, "unit": "%"}, {"measurement": "viability, T/C", "setting": "[3]", "result": 93.8, "unit": "%"}, {"measurement": "viability, T/C", "setting": "[4]", "result": 89.9, "unit": "%"}, {"measurement": "viability, T/C", "setting": "[5]", "result": 87.1, "unit": "%"}, {"measurement": "viability, T/C", "setting": "[6]", "result": 69.5, "unit": "%"}, {"measurement": "viability, T/C", "setting": "[7]", "result": 103, "unit": "%"}, {"measurement": "viability, T/C", "setting": "[8]", "result": 87.7, "unit": "%"}, {"measurement": "viability, T/C", "setting": "[9]", "result": 88.9, "unit": "%"}, {"measurement": "viability, T/C", "setting": "[10]", "result": 117, "unit": "%"}, {"measurement": "viability, T/C", "setting": "[11]", "result": 99.2, "unit": "%"}, {"measurement": "viability, T/C", "setting": "[12]", "result": 106, "unit": "%"}, {"measurement": "viability, T/C", "setting": "[13]", "result": 88.5, "unit": "%"}, {"measurement": "viability, T/C", "setting": "[14]", "result": 96.9, "unit": "%"}, {"measurement": "viability, T/C", "setting": "[15]", "result": 102, "unit": "%"}, {"measurement": "viability, T/C", "setting": "[16]", "result": 111, "unit": "%"}, {"measurement": "viability, T/C", "setting": "[17]", "result": 103, "unit": "%"}, {"measurement": "viability, T/C", "setting": "[18]", "result": 92.3, "unit": "%"}, {"measurement": "viability, T/C", "setting": "[19]", "result": 97.2, "unit": "%"}, {"measurement": "viability, T/C", "setting": "[20]", "result": 97.2, "unit": "%"}, {"measurement": "viability, T/C", "setting": "[21]", "result": 67.9, "unit": "%"}, {"measurement": "viability, T/C", "setting": "[22]", "result": 83.5, "unit": "%"}, {"measurement": "viability, T/C", "setting": "[23]", "result": 117, "unit": "%"}, {"measurement": "viability, T/C", "setting": "[24]", "result": 103, "unit": "%"}, {"measurement": "viability, T/C", "setting": "[25]", "result": 82.5, "unit": "%"}, {"measurement": "viability, T/C", "setting": "[26]", "result": 102, "unit": "%"}, {"measurement": "viability, T/C", "setting": "[27]", "result": 90.3, "unit": "%"}, {"measurement": "viability, T/C", "setting": "[28]", "result": 87.2, "unit": "%"}, {"measurement": "viability, T/C", "setting": "[29]", "result": 104, "unit": "%"}, {"measurement": "viability, T/C", "setting": "[30]", "result": 88.8, "unit": "%"}, {"measurement": "viability, T/C", "setting": "[31]", "result": 66.3, "unit": "%"}, {"measurement": "viability, T/C", "setting": "[32]", "result": 92.3, "unit": "%"}, {"measurement": "viability, T/C", "setting": "[33]", "result": 84.3, "unit": "%"}, {"measurement": "viability, T/C", "setting": "[34]", "result": 74.9, "unit": "%"}, {"measurement": "viability, T/C", "setting": "[35]", "result": 95.3, "unit": "%"}, {"measurement": "viability, T/C", "setting": "[36]", "result": 90.5, "unit": "%"}]}
